From patent US9814727B2, “Piperazine phenothiazine derivatives for treating spasticity” (UNIVERSITE D'AIX-MARSEILLE, priority 2014, dated 2017)

Tests used:
[1] = system: lumbar motoneurons (MNs); experiment: Intracellular recordings of lumbar motoneurons in the in vitro spinal cord preparation (EIPSP); assay type: cell-based, rat; settings: 10 μM
From the text: Spinal cords isolated from neonatal rats on post natal day 4 or 5 were dissected together with spinal roots. Briefly, after decapitation and evisceration, the spinal cord was exposed by dorsal laminectomy and acute removal of the dura in a cold artificial cerebrospinal fluid (ACSF; containing (in mM): 130 NaCl, 4 KCl, 3.75 CaCl2, 1.3 MgSO4, 0.58 NaH2PO4, 25 NaHCO3 and 10 glucose (all compounds were from Sigma); oxygenated with 95% O2/5% CO2, pH=7.4). The cord, from sacral segments up to T8, was then removed from the vertebral column together with peripheral roots. The preparation was then transferred to the recording chamber where it was pinned down, ventral side up, in sylgard (Dow-Corning; USA)-covered recording chamber, and continuously perfused with the ACSF solution. After removing the pia, we recorded lumbar motoneurons (MNs) intracellularly using glass microelectrodes filled with 2 M K-acetate (70 to 100-MΩ resistance). We recorded intracellular potentials in the discontinuous current-clamp (DCC) mode (Axoclamp 2B amplifier; Digidata 1200 interface; pClamp9 software; Axon Instruments, Sunnyvale, Calif., USA). We used glass suction electrode to stimulate the ipsilateral ventral funiculus 2 to 3 segments rostral to the recorded one. Such stimulations induced GABAA- and Gly-mediated Inhibitory Postsynaptic Potentials (IPSPs) in the presence of DL-2-amino-5-phosphonovaleric acid (DL-APV, 50 μM) and 6-cyano-7-nitroquinoxaline-2,3-dione (CNQX, 10 μM) (Bos et al., 2013; Boulenguez et al., 2010; Jean-Xavier et al., 2006). We recorded IPSPs at various holding potentials (500-ms-long current pulses) and collected at least 20 values for each MN. We measured and plotted amplitudes of IPSPs against holding potentials and obtained EIPSP from the regression line.
In the in vitro spinal cord preparation, isolated from neonatal rat, a way to investigate KCC2 function is provided by recording motoneurons (MNs) intracellularly and measuring the chloride equilibrium potential that is given by the reversal potential of inhibitory synaptic potentials (EIPSP). The more hyperpolarized the value of EIPSP, the lower the intracellular concentration of chloride ions and, as a result, the stronger the KCC2 function. The inventors have examined the effect of 10 μM Prochlorperazine (2) on EIPSP of lumbar MNs in P4-6 rats (FIG. 3). It hyperpolarized EIPSP within 5-10 min and measurements were done 20-25 min after the onset of Prochlorperazine (2) application.

[2] = system: KCC2; experiment: Western blot of KCC2 in total cell lysate of HEK KCC2 cells; assay type: cell-based; settings: 10 μM, 30 min of cell treatment, HEK KCC2 whole cell lysate
Method: Wild-type or KCC2-expressing Human Embryonic Kidney (HEK) 293 cells (provided by Prof. Eric Delpire Department of Anesthesiology, Vanderbilt University Medical Center, Nashville, Tenn.) were grown up to 80-90% confluence in DMEM/Ham's F-12 (1:1) (Life technologies, Carlsbad, Calif., USA) supplemented with 10% FBS (Life technologies), 50 units/mL penicillin, and 50 µg/mL streptomycin (Life technologies). KCC2-expressing clones were under puromycin selection (20 μg/ml, Life technologies).
Wild-type and KCC2-expressing HEK293 cells or NSC-34 were harvested and homogenised in lysis buffer (PBS containing 1% Igepal CA-630, 0.1% SDS, 10 mM sodium pyrophosphate, 10 mM NaF, 10 mM NaVO4, 10 mM iodoacetamide and cocktail protease inhibitors and centrifugated at 18000 g for 30 minutes at 4° C. Protein concentration in supernatants was determined using DC protein assay (Bio-rad). Same amounts of total proteins were separated in 6% or 7% SDS PAGE and transferred onto PVDF membrane. Once blocked in Tris Buffer Saline 0.05% Tween 5% non-fat dry milk, membranes were probes over night at 4° C. with KCC2 antibody (1/1000 dilution, Merck-Millipore, Billerica, Mass., USA), or anti-phospho-serine940 KCC2 (1/1000 dilution, PhosphoSolutions) or anti-Actin antibody (1/500 dilution, Sigma Aldrich). […] Signal intensity was measured with the image analysis software Image lab (Bio-Rad, Hercules, Calif., USA). […]

[3] = system: reciprocal inhibition of lumbar MNs; experiment: In vitro extracellular recordings and evaluation of reciprocal inhibition after neonatal spinal cord transection; set-up: species or system rat
From the text: Rats were deeply anesthetized by hypothermia at birth. A dorsal midline skin incision was made over the thoracic vertebra and the overlying fascia and muscles were retracted to expose the dorsal surface of the vertebrae. After a partial laminectomy, the spinal cord was completely transected at the T8 thoracic level with scissors. The lesion cavity was then filled with sterile absorbable local hemostat Surgicoll (Medical Biomaterial Products; Neustadt-Glewe, Germany). The skin incision was closed with sutures (PDSII 6.0, Ethicon; Johnson and Johnson; Brussels, Belgium) and covered by Steri-Strips (3M Health Care; St. Paul, Minn.). The whole surgical procedure took less tan 10 min after anesthesia. Sham-operated rats were treated in the same way except […] the spinal cord transection. Following surgery, the neonates recovered 45 min in a warm environment maintaining the temperature at 35±1° C. Wounds were then cleaned and rats were kept in a warm environment for 40 min before returning to the nest.
Spinal cords isolated from neonatal rats were prepared as described in section 1.2 until “recording”.
Extracellular electrophysiological signals of lumbar VRs and DRs responses were recorded by contact stainless steel electrodes insulated from the bath with vaseline. […]

CN1CCN(CCCN2c3ccccc3Sc3ccc(Cl)cc32)CC1 [compound 2, 2-chloro-10-[3-(4-methyl-1-piperazinyl)propyl]-10H-phenothiazine]
change of driving force (EIPSP-Vrest) ([1]; 20-25 min, n=6): −3.5 mV | effect on resting membrane potential (Vrest) ([1]; 20-25 min, n=6): no significant impact | hyperpolarizing shift of EIPSP compared to control ([1]; 20-25 min after onset of application, P4-6 rats, n=6): −3.3 mV | time to hyperpolarization of EIPSP ([1]; P4-6 rats): 5 to 10 min | phosphorylated KCC2 on serine 940 [2]: increased | total KCC2 protein level (monomers+oligomers) [2]: increased | strength of reciprocal inhibition relative to intact spinal cord ([3]; 200 μM (so in the source), n=6): inhibition comparable to an intact spinal cord | strength of reciprocal inhibition ([3]; 5, 10 and 20 μM, 20 min after onset of application, P5-7 rats transected at birth): increased the strength of reciprocal inhibition in a dose-dependent manner
